Series [1] in a line: Thermogravimetric analysis (TGA). Type of series: physicochemical. The conditions noted are these: heating to 400° C. under N2 at 5.0° C./min. As to the method:
Thermogravimetric Analysis (TGA) Thermographs were recorded in a Thermogravimetric Analyzer (TGA) from TA Instruments Inc. (Q500) calibrated with calcium oxalate monohydrate (CaC2O4·H2O) standard to determine if MBQ-167 degrades before melting. Between 1.000-2.000 mg of the crystalline sample were equilibrated at 25° C. for 5 min before heating to 400° C. under N2 atmosphere (60 mL/min) at a rate of 5.0° C./min and a temperature accuracy of 0.1° C. Data was analyzed with the TA Universal Analysis 2000 software (version 4.5A).
Decomposition of the Form I polymorph (a) begins at about 184.7° C., while onset for decomposition of the Form II polymorph (b) begins at about 193.0° C.

Series [2] can be described thus: Differential scanning calorimetry (DSC). Type of series: physicochemical. The conditions noted are these: heating 5.0° C./min under N2. Here is the method:
Differential Scanning calorimetry (DSC) DSC was performed to determine the melting temperature (Tm) and enthalpy of fusion (ΔfusH) of MBQ-167. A differential scanning calorimeter (DSC) from TA Instruments Inc. (Q2000) equipped with a RCS40 single-stage refrigeration system was employed to carry out these measurements. The calibration of the DSC was conducted with an indium standard (Tm=156.6° C. and ΔfusH=28.54 J/g). Between 1.000-3.000 mg of the crystalline sample was weighed using a XP26 microbalance from Mettler Toledo (±0.002 mg) and placed on Tzero aluminum pans that were hermetically sealed. Samples were equilibrated at 25° C. for 5 min before heating to 250° C. at a rate of 5.0° C./min and then was cooled to 25° C. at a heating rate of 10° C./min under a N2 atmosphere (50 mL/min) and a temperature accuracy of 0.1° C.
A first endothermic peak, with an onset of 128.22° C. and centered at 129.82° C., corresponding to 0.4504 W/g, is followed by a second endothermic peak, with an onset of 152.81° C. and centered at 153.64° C., corresponding to 0.5809 W/g.
Overlay of the two DSC thermographs, shown in FIG. 3, makes apparent the source of the behavior of the Form II polymorph. The Form I polymorph undergoes a single endothermic phase transition to the melt. […]
On the technique in general: In DSC, transitions show as peaks or steps in heat flow.

For the compound `CCn1c2ccccc2c2cc(-n3nncc3-c3ccccc3)ccc21` [Form I polymorph, 9-Ethyl-3-(5-phenyl-1H-1,2,3-triazol-1-yl)-9H-carbazole], in series [1], the “onset of decomposition (TGA)” value was “about 184.7 °C”.
As to `CCn1c2ccccc2c2cc(-n3nncc3-c3ccccc3)ccc21` [Form II polymorph, 9-Ethyl-3-(5-phenyl-1H-1,2,3-triazol-1-yl)-9H-carbazole], in series [2], the “centre of first endothermic peak (phase transition to the more stable Form I polymorph)” value was 129.82 °C and the “onset of first endothermic peak (phase transition to the more stable Form I polymorph)” value was determined as 128.22 °C. Further, in series [1], the “onset of decomposition (TGA)” value was “about 193.0 °C”.
Regarding `CCn1c2ccccc2c2cc(-n3nncc3-c3ccccc3)ccc21` [MBQ-167, 9-ethyl-3-(5-phenyl-1H-1,2,3-triazol-1-yl)-9H-carbazole], in series [1], the “decomposition relative to melting (TGA)” value is “starts to decompose after the melting temperature”.

For the origin of these results see patent US12209078B2, “Crystalline forms of carbazole inhibitors of RhoGTPase for the treatment of disease” (MBQ Pharma, priority 2021, dated 2025).
